Data set [1] deals with β-amyloid (1-40). The following applies: mouse, in vivo.
Protocol: (§1) To collect brain structures to determine the biochemical level of β-amyloid, mice were decapitated and the brain was removed in the cold. The cortex was removed by scalpel from both hemispheres, the hippocampus was bilaterally removed, the probes were placed in labeled plastic test tubes that were frozen at −80° C. and stored in a freezer until the biochemical study of the level of β-amyloid.
(§2) Biochemical identification of β-amyloid (1-40) by enzyme immunoassay was performed as follows: samples of the cortex and hippocampus, which were stored at −80° C. after collection, were weighed, thawed at room temperature, and then homogenized in a solution of 2% CHAPS 20 mM Tris-HCl (pH 7.7) in the presence of protease inhibitors (10 μg/ml leupeptin, 10 μg/ml aprotinin and 10 μg/ml AEBSF) in a volume calculated for each sample (4 ml of solution per 1 g of tissue), using a RT-12 tissue microgrinder in a glass beaker for the homogenization using a ground-glass pestle. Homogenates were centrifuged at 21,000 g at 4° C. for 30 min. Selected supernatants were stored at −80° C. and thawed immediately prior to the immunoassay analysis.
Another part of the samples were homogenized in 5 M guanidine-HCl solution of 50 mM Tris-HCl (pH 8.0), in a volume calculated for each sample (400 mcl of solution per 50 mg of tissue). […]
Data set [2] concerns sham operated (SO) mice. The following applies: mouse, in vivo.
Protocol: Experiments were performed on NMRI mice weighing 20-30 g. Initiation of Alzheimer's type neurodegenerative process was caused by the removal of the animal's olfactory bulb (bulbectomy). The operation was performed under sterile conditions under nembutal anesthesia (40 mg/kg). For local anaesthesia during scalping, a subcutaneous injection of 0.5% solution of novocaine was used. […] A group of animals to serve as control was sham-operated (SO); these animals were subjected to the same procedure but without removal of the olfactory bulbs. After surgery all animals were injected with “Bitsillin 5” antibiotic into the muscles of the hind paw at a dose of 6000 units for the prevention of infection. Upon completion of behavioral experiments, morphological studies of animal brains were conducted to ensure complete removal of olfactory bulbs.
The state of spatial memory was assessed after mice had developed spatial skills in the Morris water maze, which combines training in the formation of active avoidance and the ability to navigate in space. This method enables separate evaluation of learning and memory.
The experimental chamber was a plastic pool of dimensions 100×60×30 cm, filled with water at a temperature of 23 degrees Celsius. […] The water was clouded with milk so that animals could not visually detect the rescue platform.
All mice were pre-tested for the ability to swim and absence of an original sector preference in the water maze. The goal of the education was to have mice in one minute find the underwater platform and remember its location. Training was conducted in four sessions every day for five days, and the latency period for finding the platform was recorded for every session. 24 hours after completion of training, the level of the animal's spatial memory in the absence of a rescue platform was tested for one minute. Two indicators were used in analyzing the results: the number of visits to each sector of the maze and time spent in each sector.
Two-factor analysis (general ANOVA) was used for statistical analysis of behavioral data. Post-hoc analysis was performed using the criterion of LSD (least significant difference). The reliability of the results was also evaluated using two-tailed Student's t-test.
Data set [3] relates to β-amyloid (1-40). Kind of data set: ELISA of β-amyloid (1-40) in brain (cortex+hippocampus) of bulbectomized immunized mice. It is filed as in vivo, NMRI mice. To be noted: for Average level of βA / Individual levels of βA: BE (bulbectomized) mice, cortex+hippocampus; for Individual levels of βA: one value per mouse. (In an ELISA, binding on a coated surface is turned into a signal by an enzyme label.)
Protocol: as §1, §2
Another part of the samples were homogenized in 5 M guanidine-HCl solution of 50 mM Tris-HCl (pH 8.0), in a volume calculated for each sample (400 mcl of solution per 50 mg of tissue). The samples were stirred for 3-4 hours at room temperature, then diluted in BSAT-DPBS (5% BSA, 0.03% Tween-20) buffer, centrifuged at 21,000 g at 4° C. for 30 min, after which the supernatants were collected.
The immunosorbent assay was performed using the instructions on the ELISA for the determination of β-amyloid (1-40) (Aβ40) mouse (ELISA kit mouse Aβ40, Invitrogen).
After testing the memory of all groups of animals, brain perfusion was carried out in the cold under deep anaesthesia, and individual samples of brain tissue (cortex+hippocampus) were collected, which were stored in a freezer at a temperature of −80° C. until biochemical studies.

Data set [4] relates to bulbectomized (BE) mice. Kind of data set: Morris water maze spatial memory test, bulbectomized mice immunized with NP-1 / R-1-NP-1 in IFA (Example 1). In kind it is in vivo, NMRI mice. To be noted: for Ratio of sector visits to total number of all visits, sector 1 / Ratio of sector visits to total number of all visits, sector 2 / Ratio of sector visits to total number of all visits, sector 3 (training sector with platform) / Ratio of sector visits to total number of all visits, sector 4 / Time spent in sector 1 / Time spent in sector 2 / Time spent in sector 3 (training sector with platform) / Time spent in sector 4: BE (bulbectomized) mice, 4 immunizations with IFA, 1 min memory test; for Effect of immunization on spatial memory of BE mice (in words): immunization with IFA, no complete Freund's adjuvant. How it is done:
The immunization was carried out in four stages.
This method enables separate evaluation of learning and memory.

Data set [5] concerns bulbectomized (BE) mice. Put plainly: Morris water maze spatial memory test, bulbectomized mice immunized with KLH conjugates of NP-1 fragments (Example 2). The following applies: KLH conjugate, 1st immunization CFA, 2nd IFA, 0.1 mg/mouse. In kind it is in vivo, NMRI mice. How it is done: NMRI mice (see Example 1) were immunized with peptides conjugated to snail keyhole limpet hemocyanin (KLH).
In this study, a scheme with a double introduction of peptides into mice with complete Freund's adjuvant (CFA) for the first immunization and incomplete Freund's adjuvant (IFA) for the second immunization was used. Between the first and second immunization a bulbectomy was performed. After the second immunization, one month after bulbectomy, the mice's state of spatial memory was tested, after which the mice were put down and their blood and cerebrospinal fluid were collected to determine their level of antipeptide antibodies.
To prepare the peptide conjugates with KLH, 0.75 mg of peptide was dissolved in 0.65 ml of KLH in PBS with a protein concentration of 5.8 mg/ml and stirred for an hour while adding 38 μl of 2.5% glutaraldehyde solution in PBS. The resulting solution was stirred for 15 hours and dialyzed against PBS for 20 hours.
Tables 12 and 13 present the results of statistical analysis of spatial memory test data using univariate analysis (one-way ANOVA), to judge the ability of the animal to distinguish sections of the Morris water maze.

Data set [6] concerns bulbectomized mice. Kind of data set: Morris water maze spatial memory test, bulbectomized mice immunized with (FR-3-NP-1)2-Lys-OH / (R-2-FR-3-NP-1)2-Lys-OH in IFA (Example 3). In kind it is in vivo, NMRI mice. To be noted: four immunizations with IFA; for Number of visits to the training/rescue compartment (in words) / Time spent in the training/rescue compartment (in words): BE mice. How it is done:
Immunization was carried out in four stages.
Each group consisted of 5-8 mice.

The subject of data set [7] is animals with experimentally induced AD. To be noted: cited from earlier work.

Values joined by “and” are separate entries in the source; they are usually repeats but may differ in a detail not shown here. Equal values may be shown once. “Also recorded” adds a separate entry of the source. Read-outs that look alike come from different tables or passages of the source. No end group written: not given here.

On to “cyclo(Ala-Glu)-Trp-(Glu-Trp-Asp-Leu-Val-Gly-Ile-Pro-Gly-Lys-Arg-Ser-Glu-Arg-Phe-Tyr-Cys-Cys-Lys-Glu) ({cyclo(Ala-Glu)}-WEWDLVGIPGKRSERFYCCKE; cysteine pairing not given here) [R-1-NP-1]”, for which the “Average level of βA” value in data set [1] was determined as 2.78 ± 0.21 ng/g tissue. Moreover, in data set [2], the “Ratio of sector visits to total number of all visits, sector 1” value (“Ratio of sector visits … sector 1” for short) was 12.4 ± 2.7 percentage; the “Ratio of sector visits to total number of all visits, sector 2” value (“Ratio of sector visits … sector 2” below) is 26 ± 2.86 percentage; the “Ratio of sector visits to total number of all visits, sector 3 (training sector with platform)” value (shortened to “Ratio … (training sector with platform)”) turned out to be 40 ± 2.19 percentage; the “Ratio of sector visits to total number of all visits, sector 4” value (shortened to “Ratio of sector visits … sector 4”) is on record as 22.2 ± 3.18 percentage. Further, in data set [2], the “Time spent in sector 1” value came to 7.2 ± 1.83 s, the “Time spent in sector 2” value was 14 ± 2.43 s, the “Time spent in sector 3 (training sector with platform)” value was 30.41 ± 2.42 s and the “Time spent in sector 4” value was 8.4 ± 1.96 s. Besides, in data set [3], the “Change of βA level versus non-immunized BE mice (in words)” value is listed as “significant reduction of β-amyloid”; the “Average level of βA” value worked out at 2.985 ± 0.2 ng/g tissue; the “Individual levels of βA” value is 2.525 ng/g tissue and 3.704 ng/g tissue and 3.705 ng/g tissue and 2.398 ng/g tissue and 2.91 ng/g tissue and 2.77 ng/g tissue and 2.882 ng/g tissue. For the same substance, in data set [4], the “Ratio of sector visits … sector 1” value is reported as 20.67 ± 2.2 percentage; the “Ratio of sector visits … sector 2” value was found to be 27 ± 1.46 percentage; the “Ratio … (training sector with platform)” value came to 34.33 ± 2.44 percentage; the “Ratio of sector visits … sector 4” value was found to be 18.17 ± 1.49 percentage. In data set [4], the “Time spent in sector 1” value came to 12.17 ± 2.06 s, the “Time spent in sector 2” value amounted to 13.67 ± 1.5 s, the “Time spent in sector 3 (training sector with platform)” value amounted to 25.33 ± 4.02 s and the “Time spent in sector 4” value worked out at 8.83 ± 1.85 s. Further, the “Effect of immunization on spatial memory of BE mice (in words)” value (“Effect of immunization” for short) in data set [4] is reported as “showed improvement of spatial memory; also recorded: resulted in improved memory; also recorded: protects the spatial memory; also recorded: led to memory protection”.
For the substance IPGKRSERFY [FR-2-NP-1], in data set [5], the “Ratio of sector visits … sector 1” value is given as 17.17 ± 2.32 percentage; the “Ratio of sector visits … sector 2” value was found to be 34.5 ± 2.05 percentage; the “Ratio … (training sector with platform)” value worked out at 35.51 ± 2.64 percentage; the “Ratio of sector visits … sector 4” value is given as 13.67 ± 2.53 percentage. Besides, in data set [5], the “Time spent in sector 1” value is 12.33 ± 2.38 s, the “Time spent in sector 2” value was determined as 18.33 ± 1.82 s, the “Time spent in sector 3 (training sector with platform)” value worked out at 20.1 ± 1.86 s and the “Time spent in sector 4” value turned out to be 8.33 ± 1.98 s.
As for “Ser-Glu-Arg-Phe-Tyr-Glu-Cys-Cys-Lys-Glu-Lys(Ser-Glu-Arg-Phe-Tyr-Glu-Cys-Cys-Lys-Glu)-OH [(FR-3-NP-1)2-Lys-OH]”, in data set [6], the “Number of visits to the training/rescue compartment (in words)” value was “much worse”, the “Time spent in the training/rescue compartment (in words)” value was “much worse” and the “Effect of immunization” value is “only a slight tendency towards improvement of spatial memory”.
Turning to EWDLVGIPGKRSERFY [FR-1-NP-1], in data set [5], the “Ratio of sector visits … sector 1” value was 22.17 ± 2.63 percentage; the “Ratio of sector visits … sector 2” value was found to be 30.17 ± 1.49 percentage; the “Ratio … (training sector with platform)” value was determined as 30.83 ± 2.32 percentage; the “Ratio of sector visits … sector 4” value was 18.33 ± 1.74 percentage. Also, in data set [5], the “Time spent in sector 1” value stood at 15.83 ± 2.88 s, the “Time spent in sector 2” value came out at 17.0 ± 2.21 s, the “Time spent in sector 3 (training sector with platform)” value came out at 18.33 ± 2.04 s and the “Time spent in sector 4” value was 8.83 ± 0.7 s.
Regarding “EWDLVGIPGKRSERFYECCKE (cysteine pairing not given here) [NP-1, 2372355, reference compound]”, the “Average level of βA” value in data set [1] turned out to be 3.22 ± 0.38 ng/g tissue. For the same substance, in data set [2], the “Ratio of sector visits … sector 1” value was 14.5 ± 1.89 percentage; the “Ratio of sector visits … sector 2” value is 27.5 ± 2.1 percentage; the “Ratio … (training sector with platform)” value worked out at 40.75 ± 3.15 percentage; the “Ratio of sector visits … sector 4” value amounted to 18 ± 2.08 percentage. For the same substance, in data set [2], the “Time spent in sector 1” value amounted to 10.5 ± 2.25 s, the “Time spent in sector 2” value amounted to 13 ± 1.68 s, the “Time spent in sector 3 (training sector with platform)” value worked out at 27.5 ± 1.5 s and the “Time spent in sector 4” value stood at 9 ± 1.58 s. For the same substance, the “Brain levels of βA (in words)” value in data set [7] (animals with experimentally induced AD) is on record as “prevented an increase in brain levels of βA”. In data set [7] (in vivo), the “Antibodies produced by immunization (in words)” value is listed as “produced antibodies capable of binding to the type α7 AChRs” and the “Spatial memory in healthy animals (in words)” value is “did not lead to deterioration of spatial memory”. Besides, in data set [3], the “Change of βA level versus non-immunized BE mice (in words)” value is reported as “significant reduction of β-amyloid”; the “Average level of βA” value stood at 2.44 ± 0.38 ng/g tissue; the “Individual levels of βA” value is 3.039 ng/g tissue and 2.316 ng/g tissue and 3.324 ng/g tissue and 1.115 ng/g tissue and 2.408 ng/g tissue. Moreover, in data set [4], the “Ratio of sector visits … sector 1” value turned out to be 26.6 ± 1.54 percentage; the “Ratio of sector visits … sector 2” value is listed as 27.8 ± 2.06 percentage; the “Ratio … (training sector with platform)” value stood at 24.2 ± 0.49 percentage; the “Ratio of sector visits … sector 4” value is 21.2 ± 1.6 percentage. In data set [4], the “Time spent in sector 1” value was 17 ± 0.84 s, the “Time spent in sector 2” value was found to be 15.2 ± 1.69 s, the “Time spent in sector 3 (training sector with platform)” value is 16 ± 11.14 s and the “Time spent in sector 4” value came to 11.8 ± 1.91 s. Moreover, the “Effect of immunization” value in data set [4] is on record as “not capable of recalling the training sector; also recorded: did not improve their memory; also recorded: did not show protective activity; also recorded: did not exhibit memory protection”.
“(cyclo(Ala-Glu)(Trp-Ser-Glu-Arg-Phe-Tyr-Glu-Cys-Cys-Lys-Glu))2-Lys-OH ({cyclo(Ala-Glu)}-WSERFYECCKEK-OH; cysteine pairing not given here; also: dimer: two chains joined on Lys-OH) [(R-2-FR-3-NP-1)2-Lys-OH]”: in data set [6], the “Number of visits to the training/rescue compartment (in words)” value is “preferred the second and third compartments”; the “Time spent in the training/rescue compartment (in words)” value is recorded as “selected the third compartment with statistical significance”.
“SERFYECCKE (cysteine pairing not given here) [FR-3-NP-1]”: in data set [5], the “Ratio of sector visits … sector 1” value was found to be 20.75 ± 1.25 percentage; the “Ratio of sector visits … sector 2” value is reported as 26.25 ± 2.95 percentage; the “Ratio … (training sector with platform)” value stood at 32.0 ± 4.3 percentage; the “Ratio of sector visits … sector 4” value amounted to 21.0 ± 2.38 percentage. For the same substance, in data set [5], the “Time spent in sector 1” value came to 13.0 ± 1.91 s, the “Time spent in sector 2” value was determined as 13.75 ± 2.1 s, the “Time spent in sector 3 (training sector with platform)” value came to 25.25 ± 3.47 s and the “Time spent in sector 4” value was 8.0 ± 1.58 s.

The record behind these values is US9718869B2, “Peptide-based compounds and uses thereof to treat beta-amyloid accumulation” (MANUS PHARMACEUTICALS (CANADA) LTD., priority 2012, dated 2017).
